Measured values published in ChEMBL document CHEMBL5576083, “Structure-Based Design and Synthesis of Covalent Inhibitors for Deubiquitinase and Acetyltransferase ChlaDUB1 of Chlamydia trachomatis” (J Med Chem, 2024).
In brackets after ≈: the same amount, converted by molar mass. Activity calls are given as the source filed them. No cut-off for these calls is given here.

Key:
Chlamydia trachomatis [1] = assay: Anti-chlamydial activity against Chlamydia trachomatis serovar L2 infected in human HEp-2 cells assessed as inhibition of chlamydial inclusion incubated for 24 hrs by Alexa488/DAPI staining based immunofluorescence assay; type: functional, organism-based; details: serovar L2, HEp-2, 24 h
[2] = Binding affinity to C-terminal 6His-tagged Chlamydia trachomatis DUB1 (130 to 401 residues) expressed in Escherichia coli Rosetta 2 (DE3) cells using Ub-Rh110Gly as fluorogenic substrate assessed as inhibition constant preincubated for 60 mins followed by substrate addition measured after 360 mins by plate reader analysis
[3] = target: T1, Ubiquitin carboxyl-terminal hydrolase 25 (Homo sapiens) (UniProt Q9UHP3); assay: Inhibition of human USP25 (765 to 1055 residues) expressed in Escherichia coli Rosetta 2 (DE3) cells using Ub-Rh110Gly as fluorogenic substrate at 40 uM preincubated for 1 hr followed by substrate addition by plate reader analysis
T1 sequence (whole entry): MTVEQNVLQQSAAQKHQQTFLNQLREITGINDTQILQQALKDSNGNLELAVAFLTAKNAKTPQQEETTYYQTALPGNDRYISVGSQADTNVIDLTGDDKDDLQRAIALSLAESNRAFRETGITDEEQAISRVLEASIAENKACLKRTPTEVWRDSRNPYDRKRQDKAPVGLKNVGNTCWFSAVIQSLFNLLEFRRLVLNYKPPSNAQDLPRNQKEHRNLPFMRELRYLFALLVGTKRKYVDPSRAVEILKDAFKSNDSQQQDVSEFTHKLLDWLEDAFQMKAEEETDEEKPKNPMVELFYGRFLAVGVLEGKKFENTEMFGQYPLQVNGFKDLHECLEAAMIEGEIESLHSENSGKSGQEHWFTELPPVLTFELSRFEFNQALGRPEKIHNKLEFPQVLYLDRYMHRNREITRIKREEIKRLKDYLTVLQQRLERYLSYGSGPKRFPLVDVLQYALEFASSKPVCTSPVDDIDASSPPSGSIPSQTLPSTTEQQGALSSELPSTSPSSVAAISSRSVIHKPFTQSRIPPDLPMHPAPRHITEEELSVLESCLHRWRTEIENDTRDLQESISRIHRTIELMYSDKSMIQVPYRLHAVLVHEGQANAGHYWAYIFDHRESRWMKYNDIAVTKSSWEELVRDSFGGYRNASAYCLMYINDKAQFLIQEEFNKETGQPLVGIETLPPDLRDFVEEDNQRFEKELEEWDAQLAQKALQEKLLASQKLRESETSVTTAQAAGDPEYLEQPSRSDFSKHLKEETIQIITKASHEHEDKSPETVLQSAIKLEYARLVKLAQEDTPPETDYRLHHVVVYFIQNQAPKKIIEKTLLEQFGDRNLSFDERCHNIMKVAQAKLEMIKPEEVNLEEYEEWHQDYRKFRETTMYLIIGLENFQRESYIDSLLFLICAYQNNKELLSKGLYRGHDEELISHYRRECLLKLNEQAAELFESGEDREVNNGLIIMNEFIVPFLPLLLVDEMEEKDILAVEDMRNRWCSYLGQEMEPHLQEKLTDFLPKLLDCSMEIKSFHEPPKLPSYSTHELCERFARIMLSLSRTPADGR

[4] = target: T2, Ubiquitin carboxyl-terminal hydrolase isozyme L3 (Homo sapiens) (UniProt P15374); assay: Inhibition of GST-tagged human UCHL3 using Ub-Rh110Gly as fluorogenic substrate at 40 uM preincubated for 1 hr followed by substrate addition by plate reader analysis
T2 sequence (whole entry): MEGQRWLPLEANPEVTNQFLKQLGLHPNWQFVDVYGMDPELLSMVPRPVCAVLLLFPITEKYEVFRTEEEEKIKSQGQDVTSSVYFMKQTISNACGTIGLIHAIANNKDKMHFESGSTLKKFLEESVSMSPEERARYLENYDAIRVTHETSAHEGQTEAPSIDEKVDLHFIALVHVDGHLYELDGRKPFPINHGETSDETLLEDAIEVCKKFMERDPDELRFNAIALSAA

[5] = target: Ubiquitin carboxyl-terminal hydrolase isozyme L1 (Homo sapiens) (UniProt P09936); assay: Inhibition of 6His-tagged human UCHL1 using Ub-Rh110Gly as fluorogenic substrate at 40 uM preincubated for 1 hr followed by substrate addition by plate reader analysis
HEp-2 = assay: Cytotoxicity against human HEp-2 cells at 4 to 128 ug/ml incubated for 20 hrs by […] assay; type: toxicity, cell-based; details: hep-2, 20 h, dose 4-128 µg/ml
Chlamydia trachomatis [6] = assay: Antimicrobial activity against Chlamydia trachomatis serovar L2 infected in human HEp-2 cells assessed as fold change in inclusion forming unit at 1.56 to 12.5 ug/ml measured at 8 to 48 hrs of post-infection by immunofluorescence based microscopic analysis; type: functional; details: dose 1.56-12.5 µg/ml; time 8-48 hrs
Chlamydia trachomatis [7] = assay: Antimicrobial activity against Chlamydia trachomatis serovar L2 infected in human HeLa cells assessed as reduction in inclusion area at 3.13 ug/ml measured after 24 hrs of post-infection by microscopic analysis; type: functional; details: dose 3.13 µg/ml
Chlamydia trachomatis [8] = assay: Antimicrobial activity against Chlamydia trachomatis serovar L2 infected in human HeLa cells assessed as reduction in inclusion circumference at 6.25 ug/ml measured after 24 hrs of post-infection by microscopic analysis (reference value: 31.72 micrometer); type: functional; details: dose 6.25 µg/ml
Chlamydia trachomatis [9] = assay: Antimicrobial activity against Chlamydia trachomatis serovar L2 infected in human HeLa cells assessed as reduction in inclusion circumference at 3.13 ug/ml measured after 24 hrs of post-infection by microscopic analysis (reference value: 31.72 micrometer); type: functional; details: dose 3.13 µg/ml
Chlamydia trachomatis [10] = assay: Antimicrobial activity against Chlamydia trachomatis serovar L2 infected in human HeLa cells assessed as reduction in microbial progeny at 6.25 ug/ml measured after 48 hrs of post-infection by immunofluorescence analysis; type: functional; set-up: scale not given: the % may be the effect or the level left; details: dose 6.25 µg/ml
Chlamydia trachomatis [11] = assay: Antimicrobial activity against Chlamydia trachomatis serovar L2 infected in human HeLa cells assessed as reduction in inclusion area at 1.56 ug/ml measured after 24 hrs of post-infection by microscopic analysis; type: functional; details: dose 1.56 µg/ml

Ubiquitin carboxyl-terminal hydrolase isozyme L1 (Homo sapiens), sequence (P09936 whole entry, looked up): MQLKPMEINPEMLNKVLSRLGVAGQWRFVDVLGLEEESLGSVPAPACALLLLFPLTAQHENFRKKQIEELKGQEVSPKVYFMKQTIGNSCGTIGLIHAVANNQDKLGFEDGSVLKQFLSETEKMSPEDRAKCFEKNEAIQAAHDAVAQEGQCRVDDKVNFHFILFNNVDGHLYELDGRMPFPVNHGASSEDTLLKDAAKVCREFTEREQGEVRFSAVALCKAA

- IC50 (Chlamydia trachomatis [1]): 8.52 µg/mL (≈ 20.5 µM)
- inhibition [3]: inactive
- inhibition [4]: inactive
- inhibition [5]: Active
SMILES: N#Cc1ncc(C(=O)NCc2ccc(C(=O)NC34CC5CC(CC(C5)C3)C4)cc2)cn1
- Ki [2]: 120 µM
- Activity (HEp-2): Toxic
- fold change (FC) (Chlamydia trachomatis [6]): 2
- Activity (Chlamydia trachomatis [7]): 49.99 um2
- Activity (Chlamydia trachomatis [8]): 25.98 um
- Activity (Chlamydia trachomatis [9]): 27.26 um
- Activity (Chlamydia trachomatis [10]): 41%
- Activity (Chlamydia trachomatis [11]): 70.68 um2
